Tests used:
[1] = tested on: P388 murine leukemia cells; assay: In vitro cell-based cytotoxicity, parental P388 cells; settings: Mus musculus, 72 h, median cytotoxic concentration, 3 days continuous exposure
Protocol: The proliferation inhibition activity against the murine P388 cell line was measured as follows. Evaluation of a soluble tetrazolium/formazan assay for cell growth and drug sensitivity in culture, using human and other tumor cell lines, was done according to the procedure described in Cancer Res. 1988, 48, 4827-4833. Cells were plated at 4000 cells/well in 96 well microtiter plates and 24 h later drugs were added and serially diluted. The cells were incubated at 37° C. for 72 h, at which time a tetrazolium dye, XTT, containing phenazine methosulfate was added. A dehydrogenase enzyme in live cells reduced the XTT to a form that absorbs light at 450 nm, which could be quantitated spectrophotometrically. The greater the absorbance the greater the number of live cells. The results are expressed as an IC50, which is the drug concentration required to inhibit cell proliferation (i.e., absorbance at 450 nm) to 50% of that of untreated control cells.
(§1) Similarly, P338 murine leukemia cells were maintained in RPMI 1640 supplemented with 20% fetal bovine serum and 10 μM 2-mercaptoethanol. A camptothecin resistant subline, P388/CPT45, was selected for resistance to camptothecin and is over 1000-fold resistant to this compound (Woessner, et al. Oncol. Res. 1992, 4, 481-488).
(§2) In vitro cytotoxicity was assessed in tissue culture cells by MTS (3-(4,5-dimethylthiazol-2-yl)-5-(3-carboxymethoxyphenyl)-2-(4-sulphenyl)-2H-tetrazolium, inner salt) assay (Riss and Moravec, Mol. Biol. Cell 1992, 3 (Suppl.), 184a). Cells were plated at 8,000 cell/well in 96 well microtiter plates and 24 hours later serial dilutions of the test compounds were made and added to the cells. The cells were incubated at 37° C. for 72 hours, at which time the tetrazolium dye, MTS at 333 μg/ml (final concentration), in combination with the electron coupling agent phenazine methosulfate at 25 μM (final concentration) was added. A dehydrogenase enzyme in live cells reduces the MTS to a form that absorbs light at 492 nm which can be quantitated spectrophotometrically. The greater the absorbance the greater the number of live cells. The results are expressed as an IC50, which is the drug concentration required to inhibit cell proliferation (i.e., absorbance at 492 nm) to 50% of that of untreated control cells.
The cytotoxic activity for certain compounds of the present invention, in both parental P388 and the camptothecin-resistant P388/CPT45 cell lines are shown below in Table I.

P388/CPT45 cells = assay: Cytotoxicity in camptothecin-resistant P388/CPT45 cells relative to parental P388 (selectivity index R/S); type: cell-based, murine; settings: IC50 P388/CPT45 cells divided by IC50 parental P388 cells
Excerpt: The present invention includes fluoro sugar and other sugar derivatives of indolopyrrolocarbazoles of formula (I), as defined above. […] Most importantly, the instant invention describes topo I active compounds, related to compounds disclosed in WO 98/07433 and co-pending U.S. application, Ser. No. 08/914566 (both herein incorporated by reference), which display a surprising and unexpected selectivity index when evaluated for cytotoxicity in certain cell lines which express normal levels of topo I required for cell proliferation, compared with cell lines that are deficient in or underexpress topo I. Said “selectivity index” (R/S) was generated by dividing the cytotoxic IC50 of a particular compound against a camptothecin-resistant murine leukemia cell line, P388/CPT45, by the IC50 generated when using the parent P388 cell line. […] A level of selectivity was judged to be advantageous and beneficial in, for example, modulating potential undesirable side effects and/or toxicity. The compounds of the present invention were selected from compounds generically disclosed in WO 98/07433 and co-pending U.S. patent application, Ser. No. 08/914566, on the basis of an unexpected and unpredictable selectivity index (see Table I and II). […] Simple changes in the substitution of the sugar portion or the indolopyrrolocarbazole portion of the present invention will change the selectivity. This change in selectivity is not predictable by one skilled in the art.
as §1, §2
The selectivity index (R/S) is defined as the ratio obtained by dividing the IC50 value obtained using P388/CPT45 cells by that obtained using parental P388 cells. The R/S ratios used to determine the relative topo I selectivity of selected compounds of this invention are shown below in Table I.

[2] = biological target: T1, purified human topoisomerase I (Homo sapiens, UniProt P11387); assay: Topoisomerase I-mediated single strand DNA break induction (in vitro); type: biochemical; settings: median effect concentration for inducing single-strand breaks in the DNA substrate; read-out: Topo I EC50
T1 construct: purchased Topogen
T1 sequence (P11387 1-765): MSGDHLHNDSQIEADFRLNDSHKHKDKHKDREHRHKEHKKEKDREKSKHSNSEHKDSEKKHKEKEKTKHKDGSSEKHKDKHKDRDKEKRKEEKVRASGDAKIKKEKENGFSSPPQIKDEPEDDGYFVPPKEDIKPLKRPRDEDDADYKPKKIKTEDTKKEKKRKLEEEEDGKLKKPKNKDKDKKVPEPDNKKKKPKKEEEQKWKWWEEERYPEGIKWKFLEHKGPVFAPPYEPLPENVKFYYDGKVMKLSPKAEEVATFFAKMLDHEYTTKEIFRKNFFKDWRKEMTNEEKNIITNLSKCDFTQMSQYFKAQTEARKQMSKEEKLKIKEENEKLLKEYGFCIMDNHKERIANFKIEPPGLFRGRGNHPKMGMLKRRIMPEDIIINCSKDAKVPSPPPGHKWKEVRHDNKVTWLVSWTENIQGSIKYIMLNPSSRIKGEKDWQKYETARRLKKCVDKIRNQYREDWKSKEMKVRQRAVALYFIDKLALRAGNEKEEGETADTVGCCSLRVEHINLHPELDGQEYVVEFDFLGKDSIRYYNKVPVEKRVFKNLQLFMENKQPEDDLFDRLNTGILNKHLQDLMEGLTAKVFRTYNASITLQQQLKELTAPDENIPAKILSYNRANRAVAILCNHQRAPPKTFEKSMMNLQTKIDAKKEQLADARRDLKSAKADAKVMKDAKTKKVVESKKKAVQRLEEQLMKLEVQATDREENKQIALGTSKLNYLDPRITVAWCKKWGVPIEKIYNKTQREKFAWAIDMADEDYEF
Protocol: Topoisomerase I activity was measured as described below. The procedure for assaying compound-induced, topoisomerase I-mediated single strand breaks in DNA was essentially that described by Hsiang, et al., (J. Biol. Chem. 1985, 260, 14873-14878). Samples dissolved in 100% DMSO as either […] or 10 mg/ml solutions, unless otherwise stated, were diluted in Tris-EDTA buffer. Marine bacteriophage PM2 DNA (Boehringer Mannheim) was also diluted in Tris-EDTA buffer to a concentration of 0.02 μg/μl. Different dilutions of the compound being evaluated were mixed with diluted DNA and this mixture was added to […] (one unit of enzyme activity is defined as the amount capable of relaxing 100 ng of supercoiled DNA in approximately 30 minutes at 37° C.) aliquots of purified human topoisomerase I (Topogen) in 2X reaction buffer to start the reaction. The compound-DNA-enzyme mixture was incubated for 30 minutes at 37° C. before stopping the reaction with warm stop buffer containing sodium dodecyl sulfate and proteinase K (Sigma). These mixtures were allowed to incubate at 37° C. for another 10 minutes, at which time the mixtures were removed from the waterbath and extracted with a 24:1 mixture of chloroform/isoamyl alcohol. Following centrifugation, aliquots of the aqueous phases were placed in wells of a 0.9% agarose (SeaKem) gel in Tris-borate buffer containing 0.5 μg/ml of ethidium bromide and subjected to electrophoresis for 15 hours to separate the different topological isomers and nicked and broken DNAs. After destaining the gel in water, the ethidium bromide stained DNA reaction products were visualized by exposing the gel to UV irradiation. Negatives of the photographs of the irradiated gels were scanned with a densitometer and areas under the peaks were calculated in order to obtain percent single strand DNA break formation for each sample. A median effective concentration (EC50) was obtained for each compound by interpolation between points of the resulting dose-effect curve which defines the potency of the compound for its effect in inducing topoisomerase I-mediated single strand breaks in DNA. The topoisomerase I activities for certain compounds of the present invention are shown below in Table I.

SMILES | IC50 [1] | Selectivity Index R/S (P388/CPT45 cells) | EC50 [2]
CC(C)CC(N)C(=O)O[C@H]1[C@H](n2c3cc(F)c(F)cc3c3c4c(c5c6cc(F)c(F)cc6[nH]c5c32)C(=O)NC4=O)O[C@H](CF)C[C@@H]1O (stereo in doubt) [Example 5, 12-[4,6-Dideoxy-6-fluoro-2-O-leucyl-β-D-glucopyranosyl]-2,3,9,10-tetrafluoro-12,13-dihydro-5H-indolo[2,3-a]pyrrolo[3,4-c]carbazole-5,7(6H)-dione] | 32 nM | 112.5 | 
O=C(O)CSC[C@H]1O[C@@H](n2c3ccc(F)cc3c3c4c(c5c6cc(F)ccc6[nH]c5c32)C(=O)NC4=O)[C@H](O)[C@@H](O)[C@@H]1O [Example 1] | 57 nM | 101.7 | 50 nM
O=C1NC(=O)c2c1c1c3cc(F)ccc3sc1c1c2c2cc(F)ccc2n1[C@@H]1O[C@H](CF)[C@@H](O)[C@H](O)[C@H]1O [Example 3] | 16 nM | 110.4 | 60 nM
O=C1NC(=O)c2c1c1c3cc(F)ccc3[nH]c1c1c2c2cc(F)ccc2n1[C@@H]1O[C@H](CF)[C@H](O)[C@H](O)[C@H]1O [Example 4, 12-[6-Deoxy-6-fluoro-β-D-galactopyranosyl]-3,9-difluoro-12,13-dihydro-5H-indolo[2,3-a]pyrrolo[3,4-c]carbazole-5,7(6H)-dione] | 12 nM | 110.9 | 220 nM
NC[C@H]1O[C@@H](n2c3ccc(F)cc3c3c4c(c5c6cc(F)ccc6sc5c32)C(=O)NC4=O)[C@H](O)[C@@H](O)[C@@H]1O [Example 6] | 68 nM | >116.3 | 70 nM
C[S+]([O-])C[C@H]1O[C@H](n2c3ccc(F)cc3c3c4c(c5c6cc(F)ccc6[nH]c5c32)C(=O)NC4=O)[C@H](O)[C@@H](O)[C@@H]1O (some centres unmarked) [Example 7] | 76 nM | >116.4 | 10 nM
O=C1NC(=O)c2c1c1c3cc(F)c(F)cc3sc1c1c2c2cc(F)c(F)cc2n1[C@@H]1O[C@H](CF)[C@@H](O)[C@H](O)[C@H]1O [Example 8, 13-[6-Dideoxy-6-fluoro-β-D-glucopyranosyl]-2,3,9,10-tetrafluoro-5H,13H-benzo[b]thienyl[2,3-a]pyrrolo[3,4-c]carbazole-5,7(6H)-dione] | 52 nM | 119.1 | 120 nM
C[C@@H]1C[C@H](O)[C@@H](O)[C@H](n2c3ccc(F)cc3c3c4c(c5c6cc(F)ccc6[nH]c5c32)C(=O)NC4=O)O1 [Example 11, 12-[4,6-Dideoxy-β-D-glucopyranosyl]-3,9-difluoro-12,13-dihydro-5H-indolo[2,3-a]pyrrolo[3,4-c]carbazole-5,7(6H)-dione] | 16 nM | 125.3 | 
C[C@]1(O)C[C@@H](CO)O[C@@H](n2c3cc(F)c(F)cc3c3c4c(c5c6cc(F)c(F)cc6[nH]c5c32)C(=O)NC4=O)[C@@H]1O [Example 18, 12-[4-Deoxy-3-methyl-β-D-glucopyranosyl]-2,3,9,10-tetrafluoro-12,13-dihydro-5H-indolo[2,3-a]pyrrolo[3,4-c]carbazole-5,7(6H)-dione] | 8 nM | 184.8 | 
CNCC(=O)NC[C@H]1O[C@@H](n2c3ccc(F)cc3c3c4c(c5c6cc(F)ccc6sc5c32)C(=O)NC4=O)[C@H](O)[C@@H](O)[C@@H]1O [Example 23, 12-[6-Deoxy-6-[(N-methylglycinyl)amino]-β-D-glucopyranosyl]-3,9-difluoro-5H, 13H-benzo[b]thienyl[2,3-a]pyrrolo[3,4-c]carbazole-5,7(6H)-dione] | 25 nM | 306.8 | 
C[C@@]1(O)C[C@@H](CO)O[C@@H](n2c3cc(F)c(F)cc3c3c4c(c5c6cc(F)c(F)cc6[nH]c5c32)C(=O)NC4=O)[C@@H]1O [Example 29, 12-[4-Deoxy-3-methyl-β-D-allopyranosyl]-2,3,9,10-tetrafluoro-12,13-dihydro-5H-indolo[2,3-a]pyrrolo[3,4-c]carbazole-5,7(6H)-dione] | 5 nM | 539.6 | 
O=C1NCc2c1c1c3cc(F)ccc3[nH]c1c1c2c2cc(F)ccc2n1[C@@H]1O[C@H](CO)[C@@H](F)[C@H](O)[C@H]1O [Example 32, 12-[4-Deoxy-4-fluoro-β-D-glucopyranosyl]-3,9-difluoro-12,13-dihydro-5H-indolo[2,3-a]pyrrolo[3,4-c]carbazole-5(6H)-one] | 5 nM | 1051.8 | 
O=C1NCc2c1c1c3cc(F)ccc3n([C@@H]3O[C@H](CO)[C@@H](F)[C@H](O)[C@H]3O)c1c1[nH]c3ccc(F)cc3c21 [Example 34, 12-[4-Deoxy-4-fluoro-β-D-glucopyranosyl)-3,9-difluoro-12,13-dihydro-5H-indolo[2,3-a]pyrrolo[3,4-c]carbazole-7(6H)-one] | 2 nM | 2859.5 | 
